# Assay results: patent publication US6221914A, “Sulfonamide bridging compounds that inhibit tryptase activity” (Array Biopharma Inc., priority 1998, dated 2001)
# What was measured:
# Type in all cases: biochemical
# [1] = target: T1, Human Neutrophil elastase (Homo sapiens, UniProt P08246); assay: Ki determination, human neutrophil elastase (pyroGlu-Pro-Val-pNA); settings: 100 mM Tris-HCl, pH 8.3, 0.96 M NaCl, 1% BSA; read-out: Experimentally Determined Ki, Elastase
# T1 construct: from tissue; host or cells: human neutrophils
# T1 sequence (P08246 30-267): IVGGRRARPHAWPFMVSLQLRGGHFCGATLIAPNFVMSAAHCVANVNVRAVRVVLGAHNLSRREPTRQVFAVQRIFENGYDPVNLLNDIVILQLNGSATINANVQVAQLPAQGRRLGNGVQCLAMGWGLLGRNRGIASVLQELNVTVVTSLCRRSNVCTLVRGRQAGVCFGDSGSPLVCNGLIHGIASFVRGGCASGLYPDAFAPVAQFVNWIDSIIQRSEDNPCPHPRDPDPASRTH
# Procedure: (§1) Protease inhibition was assayed according to published procedures with minor modifications using various proteases and specific chromogenic peptide p-nitroanilide substrates. Assays were performed in Costar ultra-low cluster 96-well microtiter plate (Costar Corning Corp., Cambridge Mass.). Each protease was incubated with various concentrations of the test compound for 15 min. at 37° C. or as otherwise indicated, in specific assay buffer, and the residual activity was then measured by addition of the substrate. p-Nitroaniline produced by the proteolysis was determined by measuring the change in absorbance at 405 nm on a SpectraMAX 340 plate reader (Molecular devices, Sunnyvale, Calif.).
# (§2) 1. The inhibition constant, Ki is calculated from individual data points using the equation for a tight-binding inhibitor (See Beith, "Proteinase Inhibitors-Proceedings of 2nd Int. Res. Conference", Fritz, et al. eds, New York, p.4463-4469 (1974)):
# (§3) vi /vo [((Ki '+[I]+[E]o)^2 -4 [I]o
# (§4) [E]o)^1/2 (Ki '+[I]o -[E]o)]/2[E]o
# (§5) where Ki ' is apparent inhibition constant; vi and vo are the inhibited and uninhibited rates, respectively; [I]o and [E]o are the total concentrations of inhibitor and enzyme, respectively.
# (§6) [note: [E]o is determined by active site titration of enzyme]
# (§7) The Ki values are obtained by correcting Ki ' values for the effect of substrate concentration according to: [formula]
# (§8) 2. Other inhibition data (Ki >>[E]o), the Ki is calculated from using the equations for a competitive inhibitor: [formula]
# Human Neutrophil elastase activity was determined by using pyroGlu-Pro-Val-pNA in 100 mM Tris-HCl, pH 8.3, 0.96 M NaCl, 1% BSA (See Kramps, et al. Scand. J. Clin. Lab. Invest. 43, 427-432 (1983)).
# (§9) The inhibition constant (Ki) of the test compounds against each proteolytic enzyme was determined according to Zitnik et al., Biochem. Biophys. Res. Commun. 232, 687-697 (1997)).
# Human lung tryptase = assay: Ki determination, human lung tryptase (Tosyl-Gly-Pro-Arg-pNA substrate); settings: 50 mM Tris-HCl pH 8.0, 37° C., 1 nM tryptase, 320 μM GPR-pNA; read-out: Experimentally Determined Ki, Tryptase
# Procedure: as §1, §2, §3, §4, §5, §6, §7, §8
# Human lung tryptase purchased from Cortex Biochem (San Leandro, Calif.) was purified further on a Superdex 200 gel-filtration column. The active-site concentration of the enzyme was determined by spectrophotometric titration with 4-nitrophenyl 4'-guanidinobenzoate according to Schwartz, et al., J. Immunol., 114, 2304-2311 (1990). Tryptase activity was measured according to the procedures of Schwartz, et al., J. Biol. Chem., 261, 7372-7379 (1986) (See also, Schwartz, L. B., Methods In Enzymology, 244, 88 (1994)) with minor modifications, using Tosyl-Gly-Pro-Arg-p-nitroanilide ("GPR-pNA", Sigma Chemical Co., St. Louis, Mo., T-1637) as a chromogenic substrate. The reaction was performed in 50 mM Tris-HCl, pH 8.0, containing 150 mM NaCl and 0.02% Triton X-100 at 37° C. in Costar ultra-low cluster 96-well microtiter plates (Costar Corning Corp., Cambridge, Mass.). The amount of pNA produced by tryptase was determined by measuring the change in absorbance at 405 nm on a SpectraMAX 340 plate reader (Molecular devices, Sunnyvale, Calif.). The Km for the substrate was determined by Lineweaver-Burk analysis from initial velocities of substrate hydrolysis. The inhibition assay was carried out in a total volume of 200 μL. Tryptase (30 μL- final concentration 1 nM) was incubated with various concentrations of sample compound (50 μL) to be tested in the above assay buffer for 5 min. The reaction was started by the addition of substrate GPR-pNA (40 μL-final concentration 320 μM), and the residual activity was measured after 15 min. of incubation. The inhibition constant, Ki, was determined by fitting the inhibition data to a two-site competitive binding equation using data analysis program GraphPad PRISM (GraphPad Software, Inc., San Diego, Calif.).
# as §9
# [2] = target: T2, Human Neutrophil Cathepsin G (Homo sapiens, UniProt P08311); assay: Ki determination, human neutrophil cathepsin G (N-Suc-Ala-Ala-Pro-Phe-pNA); settings: 625 mM Tris-HCl, pH 7.5, 2.5 mM MgCl2, 0.125% Brij 35; read-out: Experimentally Determined Ki, Cathepsin G
# T2 construct: from tissue; host or cells: human neutrophils
# T2 sequence (P08311 21-255): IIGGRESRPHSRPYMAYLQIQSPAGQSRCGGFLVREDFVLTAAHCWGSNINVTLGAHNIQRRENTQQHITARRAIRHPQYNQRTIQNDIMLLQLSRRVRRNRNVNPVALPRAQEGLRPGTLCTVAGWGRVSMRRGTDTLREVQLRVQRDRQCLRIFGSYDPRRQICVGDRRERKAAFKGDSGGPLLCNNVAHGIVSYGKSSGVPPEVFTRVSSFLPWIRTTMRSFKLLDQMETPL
# Procedure: as §1, §2, §3, §4, §5, §6, §7, §8
# Human Neutrophil Cathepsin G activity was determined by using N-Suc-Ala-Ala-Pro-Phe-pNA in 625 mM Tris-HCl, pH 7.5, 2.5 mM MgCl2, 0.125% Brij 35 (See Groutas et al., Arch. Biochem. Biophys. 294, 144-146 (1992)).
# as §9
# Human plasma thrombin = target: T3, Human plasma thrombin (Homo sapiens, UniProt P00734); assay: Ki determination, human plasma thrombin (H-D-Phe-Pip-Arg-pNA); settings: 50 mM Tris-HCl, pH 8.3, 100 mM NaCl, 1% BSA; read-out: Experimentally Determined Ki, Thrombin
# T3 construct: from tissue; host or cells: human plasma
# Procedure: as §1, §2, §3, §4, §5, §6, §7, §8
# Human plasma thrombin activity was determined by using H-D-Phe-Pip-Arg-pNA in 50 mM Tris-HCl, pH 8.3, 100 mM NaCl, 1% BSA (See Lottenberg, et al. Meth. Enzymol. 80, 341-361 (1981)).
# as §9
# Human plasma plasmin = target: T4, Human plasma plasmin (Homo sapiens, UniProt P00747); assay: Ki determination, human plasma plasmin (Tosyl-Gly-Pro-Lys-pNA); settings: 100 mM Tris-HCl, pH 7.4, 100 mM NaCl, 0.05% Triton X-100; read-out: Experimentally Determined Ki, Plasmin
# T4 construct: from tissue; host or cells: human plasma
# Procedure: as §1, §2, §3, §4, §5, §6, §7, §8
# Human plasma plasmin activity was determined by using Tosyl-Gly-Pro-Lys-pNAin 100 mM Tris-HCl, pH 7.4, 100 mM NaCl, 0.05% Triton X-100 (See Lottenberg, et al., Meth. Enzymol. 80, 341-361 (1981)).
# as §9
# Human plasma factor Xa = target: T5, Human plasma factor Xa (Homo sapiens, UniProt P00742); assay: Ki determination, human plasma factor Xa (N-Benzoyl-Ile-Glu-Gly-Arg-pNA); settings: 50 mM Tris-HCl, pH 7.8, 200 mM NaCl, 0.05% BSA; read-out: Experimentally Determined Ki, Factor Xa
# T5 construct: from tissue; host or cells: human plasma
# Procedure: as §1, §2, §3, §4, §5, §6, §7, §8
# Human plasma factor Xa activity was determined by using N-Benzoyl-Ile-Glu-Gly-Arg-pNA in 50 mM Tris-HCl, pH 7.8, 200 mM NaCl, 0.05% BSA (See Lottenberg, et al. Meth. Enzymol. 80, 341-361 (1981)).
# as §9
# [3] = target: T6, Bovine pancreatic Trypsin (Bos taurus, UniProt P00760); assay: Ki determination, bovine pancreatic trypsin (N-a-Benzoyl-L-Arg-pNA); settings: 50 mM Tris-HCl, pH 8.2, 20 mM CaCl2; read-out: Experimentally Determined Ki, Trypsin
# T6 construct: from tissue; host or cells: bovine pancreas
# T6 sequence (P00760 24-246): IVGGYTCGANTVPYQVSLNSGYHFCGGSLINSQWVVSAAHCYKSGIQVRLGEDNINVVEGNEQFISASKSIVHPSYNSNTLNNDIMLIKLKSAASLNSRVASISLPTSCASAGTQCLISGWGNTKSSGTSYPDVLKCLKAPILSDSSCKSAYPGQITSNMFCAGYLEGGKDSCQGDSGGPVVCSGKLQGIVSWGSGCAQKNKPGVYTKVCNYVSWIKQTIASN
# Procedure: as §1, §2, §3, §4, §5, §6, §7, §8
# Bovine pancreatic Trypsin (TPCK-treated) activity was determined by using N-a-Benzoyl-L-Arg-pNA in 50 mM Tris-HCl, pH 8.2, 20 mM CaCl2 (See Somorin, et al., J. Biochem. 85, 157-162 (1979)).
# as §9
# [4] = target: T7, Bovine Pancreatic Chymotrypsin (Bos taurus, UniProt P00766); assay: Ki determination, bovine pancreatic chymotrypsin (N-Suc-Ala-Ala-Pro-Phe-pNA); settings: 100 mM Tris-HCl, pH 7.8, 10 mM CaCl2; read-out: Experimentally Determined Ki, Chymotrypsin
# T7 construct: from tissue; host or cells: bovine pancreas
# Procedure: as §1, §2, §3, §4, §5, §6, §7, §8
# Bovine Pancreatic Chymotrypsin activity was determined by using N-Suc-Ala-Ala-Pro-Phe-pNA in 100 mM Tris-HCl, pH 7.8, 10 mM CaCl2 (See Delmar, et al., J. Biochem. 85, 157-162 (1979)).
# as §9
# Human plasma kallikrein = target: T8, Human plasma kallikrein (Homo sapiens, UniProt P03952); assay: Ki determination, human plasma kallikrein (H-D-Prolyl-Phe-Arg-pNA); settings: 50 mM Tris-HCl, pH 7.8, 200 mM NaCl, 0.05% BSA; read-out: Experimentally Determined Ki, Plasma Kallikrein
# T8 construct: from tissue; host or cells: human plasma
# Procedure: as §1, §2, §3, §4, §5, §6, §7, §8
# (§10) I. Human Plasma and r-Tissue Kallikrein
# (§11) Human plasma and r-tissue kallikrein activity were determined in 50 mM Tris-HCl, pH 7.8, 200 mM NaCl, 0.05% BSA by using H-D-Prolyl-Phe-Arg-pNA and DL-Val-Leu-Arg-pNA, respectively (See Lottenberg, et al., Meth. Enzymol. 80, 341-361 (1981)).
# as §9
# r-tissue kallikrein = r-tissue kallikrein (Homo sapiens, UniProt P06870); assay: Ki determination, r-tissue kallikrein (DL-Val-Leu-Arg-pNA); settings: 50 mM Tris-HCl, pH 7.8, 200 mM NaCl, 0.05% BSA; read-out: Experimentally Determined Ki, Tissue Kallikrein
# Procedure: as §1, §2, §3, §4, §5, §6, §7, §8, §10, §11, §9
# T5 sequence (P00742 235-488 limits assumed): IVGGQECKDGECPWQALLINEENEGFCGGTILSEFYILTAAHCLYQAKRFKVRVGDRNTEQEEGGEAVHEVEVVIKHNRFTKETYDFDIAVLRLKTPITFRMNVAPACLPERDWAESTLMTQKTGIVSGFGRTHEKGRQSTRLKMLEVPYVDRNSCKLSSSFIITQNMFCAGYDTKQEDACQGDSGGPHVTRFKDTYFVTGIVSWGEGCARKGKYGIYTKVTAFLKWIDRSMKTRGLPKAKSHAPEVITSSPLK
# T5 sequence (P00742 41-179 partner limits assumed): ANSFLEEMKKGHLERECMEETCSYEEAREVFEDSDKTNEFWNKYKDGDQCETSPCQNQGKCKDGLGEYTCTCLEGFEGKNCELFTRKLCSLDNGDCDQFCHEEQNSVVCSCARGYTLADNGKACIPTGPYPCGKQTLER
# T4 sequence (P00747 581-810 limits assumed): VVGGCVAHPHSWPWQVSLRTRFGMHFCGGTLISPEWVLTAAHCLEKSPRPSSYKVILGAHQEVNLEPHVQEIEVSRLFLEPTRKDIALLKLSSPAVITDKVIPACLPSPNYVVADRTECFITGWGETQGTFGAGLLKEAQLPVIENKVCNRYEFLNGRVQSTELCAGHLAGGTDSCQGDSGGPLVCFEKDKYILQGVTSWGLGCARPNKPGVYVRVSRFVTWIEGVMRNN
# T4 sequence (P00747 97-580 partner limits assumed): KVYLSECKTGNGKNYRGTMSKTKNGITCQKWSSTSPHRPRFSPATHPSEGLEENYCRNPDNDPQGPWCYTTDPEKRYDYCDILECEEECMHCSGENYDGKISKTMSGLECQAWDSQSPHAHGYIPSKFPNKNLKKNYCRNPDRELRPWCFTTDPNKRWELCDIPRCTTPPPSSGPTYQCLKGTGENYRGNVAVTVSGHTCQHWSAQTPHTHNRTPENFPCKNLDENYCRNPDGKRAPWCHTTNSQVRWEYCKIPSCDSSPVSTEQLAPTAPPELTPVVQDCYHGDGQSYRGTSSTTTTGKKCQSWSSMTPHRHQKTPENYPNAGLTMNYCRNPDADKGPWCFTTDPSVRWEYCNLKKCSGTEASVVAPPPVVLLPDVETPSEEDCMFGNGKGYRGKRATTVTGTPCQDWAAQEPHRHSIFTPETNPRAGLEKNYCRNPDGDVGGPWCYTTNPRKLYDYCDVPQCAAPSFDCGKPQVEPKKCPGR
# Sequence of r-tissue kallikrein (P06870 25-262): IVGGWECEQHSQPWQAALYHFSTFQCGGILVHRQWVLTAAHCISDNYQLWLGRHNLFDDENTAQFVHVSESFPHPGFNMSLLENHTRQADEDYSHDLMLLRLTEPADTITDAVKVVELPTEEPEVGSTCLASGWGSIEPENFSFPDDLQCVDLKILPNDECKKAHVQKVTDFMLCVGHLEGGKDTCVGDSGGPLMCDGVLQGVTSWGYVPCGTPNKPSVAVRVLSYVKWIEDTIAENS
# T8 sequence (P03952 391-638 limits assumed): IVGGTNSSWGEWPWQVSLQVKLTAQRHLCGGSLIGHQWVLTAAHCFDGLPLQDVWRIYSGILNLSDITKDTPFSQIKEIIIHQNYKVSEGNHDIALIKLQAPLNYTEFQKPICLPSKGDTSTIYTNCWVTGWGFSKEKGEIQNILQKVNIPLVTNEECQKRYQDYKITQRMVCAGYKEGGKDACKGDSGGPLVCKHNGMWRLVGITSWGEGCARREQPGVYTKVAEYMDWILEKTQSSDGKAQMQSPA
# T8 sequence (P03952 20-390 partner limits assumed): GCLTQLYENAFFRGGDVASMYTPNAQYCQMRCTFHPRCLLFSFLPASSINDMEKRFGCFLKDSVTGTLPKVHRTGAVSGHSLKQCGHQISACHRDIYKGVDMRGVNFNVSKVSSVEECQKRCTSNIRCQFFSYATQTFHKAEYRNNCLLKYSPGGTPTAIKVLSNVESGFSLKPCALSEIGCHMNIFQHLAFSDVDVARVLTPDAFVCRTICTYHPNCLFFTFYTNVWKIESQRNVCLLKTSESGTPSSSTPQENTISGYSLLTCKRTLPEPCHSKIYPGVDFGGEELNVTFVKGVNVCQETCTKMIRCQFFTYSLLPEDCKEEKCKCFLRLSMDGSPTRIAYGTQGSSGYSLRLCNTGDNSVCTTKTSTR
Compound,Ki [1] [µM],Ki (Human lung tryptase) [nM],Ki [2] [µM],Ki (Human plasma thrombin) [µM],Ki (Human plasma plasmin) [µM],Ki (Human plasma factor Xa) [µM],Ki [3] [µM],Ki [4] [µM],Ki (Human plasma kallikrein) [µM],Ki (r-tissue kallikrein) [µM]
"N=C(N)c1ccc(S(=O)(=O)NCc2ccc(OCCCCCOc3ccc(CNS(=O)(=O)c4ccc(C(=N)N)cc4)cc3)cc2)cc1 [Example 42, 1,5-Bis-{4-[(4-carbamimidoyl-benzenesulfonylamino)-methyl]-phenoxy}-pentane]",> 100,250,> 100,> 100,> 100,47,–,–,–,–
"N=C(N)c1ccc(S(=O)(=O)NCc2ccc(OCCCCCCOc3ccc(CNS(=O)(=O)c4ccc(C(=N)N)cc4)cc3)cc2)cc1 [Example 44, 1,6-Bis-{4-[(4-carbamimidoyl-benzenesulfonylamino)-methyl]-phenoxy}-hexane]",–,3200,–,–,–,–,8,–,–,–
"N=C(N)c1ccc(S(=O)(=O)NCc2ccc(OCCCCCCCOc3ccc(CNS(=O)(=O)c4ccc(C(=N)N)cc4)cc3)cc2)cc1 [Example 46, 1,7-Bis-{4-[(4-carbamimidoyl-benzenesulfonylamino)-methyl]-phenoxy}-heptane]",–,1500,–,–,–,–,–,–,–,–
"N=C(N)c1ccc(S(=O)(=O)NCc2ccc(OCCCCOc3ccc(CNS(=O)(=O)c4ccc(C(=N)N)cc4)cc3)cc2)cc1 [Example 48, 1,4-Bis-{4-[(4-carbamimidoyl-benzenesulfonylamino)-methyl]-phenoxy}-butane]",–,12500,–,–,–,–,4.2,–,–,–
"N=C(N)c1ccc(S(=O)(=O)NCc2ccc(OCCOc3ccc(CNS(=O)(=O)c4ccc(C(=N)N)cc4)cc3)cc2)cc1 [Example 52, 1,2-Bis-{4-[(4-carbamimidoyl-benzenesulfonylamino)-methyl]-phenoxy}-ethane]",–,1500,–,–,–,–,–,–,–,–

# Continued, values first:
Ki [1] [µM],Ki (Human lung tryptase) [nM],Ki [2] [µM],Ki (Human plasma thrombin) [µM],Ki (Human plasma plasmin) [µM],Ki (Human plasma factor Xa) [µM],Ki [3] [µM],Ki [4] [µM],Ki (Human plasma kallikrein) [µM],Ki (r-tissue kallikrein) [µM],Compound
> 100,–,> 100,> 100,3.7,40,1.4,> 100,9,16,"N=C(N)c1ccc(S(=O)(=O)NCc2cccc(OCCCCCOc3cccc(CNS(=O)(=O)c4ccc(C(=N)N)cc4)c3)c2)cc1 [Example 74, 1,5-Bis-{3-[(4-carbamimidoyl-benzenesulfonylamino)-methyl]-phenoxy}-pentane]"
> 100,–,> 100,> 100,> 100,6,3,> 100,2.9,> 100,"N=C(N)c1cccc(S(=O)(=O)NCc2cccc(OCCCCCOc3cccc(CNS(=O)(=O)c4cccc(C(=N)N)c4)c3)c2)c1 [Example 75, 1,5-Bis-{3[-(3-carbamimidoyl-benzenesulfonylamino)-methyl]-phenoxy}-pentane]"
–,2,–,–,–,–,–,–,–,–,N=C(N)c1ccc2[nH]c(CC(=O)NCc3ccc(CNCCNCc4ccc(CNC(=O)Cc5nc6cc(C(=N)N)ccc6[nH]5)cc4)cc3)nc2c1 [Example 119]
